Results: patent US4542153A, “Methods for changing calcium metabolism within the cells of a mammal” (The Ohio State University Research Foundation, priority 1983, dated 1985)
pIC50: −log10 of the molar value. Entries after “also recorded” stand apart in the source; their conditions may differ.

Assays:
[1] = tested on: thoracic aorta strips contracted with norepinephrine; test: Vasodilator activity: norepinephrine-contracted aortic strips; format: cell-based, male Sprague-Dawley rats
Description: (§1) Pr-MDI, bu-MDI, Q-bu-MDI and the compounds of Formulae IIIA, IIIB and IVA having the two R1 groups together forming a methylene group, each R3 a methyl group and R2 an n-propyl group or n-butyl group (the compounds of Formula III are hereinafter abbreviated as sat-pr-MDI and sat-bu-MDI respectively, reference being made where necessary to the cis isomer of Formula III A or the trans isomer of Formula III B while the compounds of Formula IV are similarly referred to as cis sat-Q-pr-MDI and cis sat-Q-bu-MDI) were tested for vasodilator activity by the method of R. F. Furchgott and S. Bhadrakom, J. P. Pharmacol. Ex. Ther., 108, 129-143 (1953).
(§2) The vasodilator activity tests were conducted on male Sprague-Dawley rats, obtained from Harlan Industries, Inc., Cumberland, Indiana. The rats, weight 250-300 g., were sacrified by cervical dislocation and a 2.5 cm. segment of the thoracic aorta was removed and rinshed in physiological buffer. Each aortic segment was cleaned of connective tissue and cut spirally two yield to strips, each 3 by 15 mm. Each strip was mounted isometrically under a tension of 1 g in a 10 ml. tissue bath thermostatically maintained at 37° C. and containing a normal physiological solution aerated with a 95% oxygen/5% carbon dioxide mixture. Forces generated by the strip were monitored using a Grass FT03 isometric transducer coupled to a Grass module 7D polygraph recorder, both the transducer and the recorder being obtained from Grass Instrument Co., of Quincy, Mass.
(§3) After the aortic tissue had been allowed to equilibriate for 1-1.5 hours in the normal physiologic solution, tissue contraction was induced by introducing either 10^-7 M norepinephrine or 40mM potassium chloride buffer to the tissue bath.
(§4) To avoid interference by loss of tension due to time dependent tissue fatigue, separate preliminary experiments were performed to determine the degree of tissue relaxation due to such fatigue and the value of the control tension generated by norepinephrine or potassium chloride prior to the addition of the test compounds was adjusted whenever the duration of the experiment was such that fatigue could be expected to cause more than a 6% loss of tension. […] All concentrations mentioned hereinafter represent the final concentration of the test compound after dilution in the tissue bath.
(§5) The figures of concentration against percent response data obtained from each aortic tissue were transformed to its appropriate probit value and IC50 values were then estimated using linear regression analysis. The normal physiological solution contained 6.9 g/l of sodium chloride, 0.35 g/l of potassium chloride, 0.11 g/l of magnesium chloride hexahydrate, 0.138 g/l of sodium dihydrogen phosphate, 2.1 g/l of sodium bicarbonate, 0.01 g/l of EDTA, 0.368 g/l of calcium chloride dihydrate and 2.0 g/l of dextrose. The high potassium buffers were obtained by substituting potassium chloride for sodium chloride on an equimolar basis to maintain tonicity.

[2] = tested on: spontaneously beating right atria; test: Effects on isolated guinea pig atria: spontaneously beating right atria; format: cell-based
Description: (§6) The effects of pr-MDI, bu-MDI and Q-bu-MDI on the mechanical and electrical behavior of isolated guinea pig atria were investigated by the method of H. Nawrath, J. Pharmacol. Exp. Ther., 16, 176-182 (1980). The compounds were investigated over the concentration range of 10^-8 to 3×10^-4 M.
(§7) English short-haired guinea pigs, supplied by Carr Animal Supply, of Powell, Ohio, weighing 300-600 g. were killed by a blow on the head and both atria of the animal were quickly dissected out and suspended in a water-jacketed organ bath containing Krebs-Henseleit solution through which a 95% oxygen/5% carbon dioxide mixture was bubbled at 32° C. The solution contained 6.92 g/l of sodium chloride, 0.35 g/l of potassium chloride, 0.29 g/l of magnesium […] heptahydrate, 0.3 g/l of calcium chloride dihydrate, 0.16 g/l of potassium dihydrogen phosphate, 2.1 g/l of sodium bicarbonate and 2.1 g/l of dextrose. The contractile force generated by the isolated artria was recorded isometrically under a 500 mg. preload using a Narco Biosystems force transducer connected to a physiograph DMP-4B recorder, both the transducer and the recorder being obtained from E & M Instrument Co. of Houston, Texas.
Spontaneously beating right atria were tested in a similar manner.

[3] = tested on: isolated left atria; test: Effects on isolated guinea pig atria: electrically driven left atria; format: cell-based
Description: as §6, §7
The isolated left atria were electrically driven by square wave impulses of 3 milliseconds duration at a frequency of 3 Hz. and a voltage of twice the threshold voltage, delivered by a Grass S9 stimulator obtained from Grass Instrument Co., of Quincy, Massachusetts. Two platinum electrodes were used for the stimulation, the anode being in direct contact with the atrial tissue while the cathode had the form of a ring suspended 2.5 centimeters above the anode. Before redetermination of the threshold voltage and generation of a predrug (control) frequency-force profile over the range of 1-5 Hz., an equilibriation time of one hour was allowed. The system was then re-equilibriated at 3 Hz. and twice the threshold voltage as before, then one cumulative dose-response curve of contractile force for one test compound was obtained, followed immediately by redetermination of the threshold voltage and the generation of a post-drug frequency-force profile.
A paired Student's t-test was used to compare predrug and postdrug threshold voltages for each left atrial preparations as well as to compare developed tension at each frequency in the profile of each left atrial preparation. P values of less than 0.05 were considered statistically significant.

[4] = tested on: thoracic aorta strips contracted with potassium chloride; test: Vasodilator activity: potassium chloride-contracted aortic strips; format: cell-based, male Sprague-Dawley rats; conditions: rat aorta contracted with 40 mM potassium chloride; read-out: IC50 (mean and range of SEM) KCl
Description: as §1, §2, §3, §4, §5

[5] = tested on: arrhythmia in mammals; conditions: in vivo

CCCCC1=Cc2cc3c(cc2C1[N+](C)(C)C)OCO3.[I-] (stereo not drawn) [Q-bu-MDI, 2-Butyl-5,6-methylenedioxyindene-1-trimethylammonium iodide]
relaxation of the aortic tissue ([1]; norepinephrine- or KCl-treated tissue): relaxed the aortic tissue
comparative vasodilator activity, norepinephrine-treated tissue ([1]; norepinephrine-treated aortic tissue): less active in vitro than their tertiary analogs
pIC50 ([1]; rat aorta contracted with 10^-7 M norepinephrine, read-out: IC50 (mean and range of SEM) Norepinephrine): 3.89
effect on the contractile force of right atria at the highest concentration ([2]; 3×10^-4 M): positive inotropy
effect on spontaneous atrial rate ([2]; 10^-8 to 3×10^-4 M): only a slight decrease in the spontaneous atrial rate; also recorded: much less than the other two compounds
effect on the contractile force of right atria ([2]; except at 3×10^-4 M for Q-bu-MDI): minimal effects on the contractile force of right atria
effect on frequency-force profile/relation of the stimulated left atrium ([3]; 3×10^-4 M): no significant effect
effect on the contractile force of left atrium at the highest concentration ([3]; 3×10^-4 M): partially reversed
effect on threshold voltage required to drive the atria ([3]; 3×10^-4 M): no significant effect upon the threshold voltage
dose-dependent decrease in the contractile force of the electrically stimulated left atrium ([3]; 10^-4 M, 100 µM): ≤ 20%
effect on contractile force of the electrically stimulated left atrium ([3]; 10^-8 to 3×10^-4 M): very modest; also recorded: much less than the other two compounds
overall effect on mechanical and electrical behavior of atria ([3]; 10^-8 to 3×10^-4 M): much smaller than that of bu-MDI or pr-MDI
persistent effects on frequency-force relation and threshold voltage ([3]; maximum concentration 3×10^-4 M): did not produce any persistent effects
pIC50 [4]: 3.77
effectiveness relative to tertiary analog (bu-MDI), average over tests [5]: about four
